Earlier results on one compound are cited in paper PMC6152717, “Novel Tacrine-Scutellarin Hybrids as Multipotent Anti-Alzheimer’s Agents: Design, Synthesis and Biological Evaluation” (Molecules : A Journal of Synthetic Chemistry and Natural …, 2017).

Marks after values point to notes of the source that are not given here.

Broadly, the IC50 is the midpoint of a concentration-inhibition curve.

In series [1] the test system is Electric eel AChE (EeAChE). To be noted: cited from earlier work.
Series [2] relates to BChE from equine serum (eqBChE). The conditions noted are these: read-out: BChE IC50 ± SEM; cited from earlier work.
For series [3] the following is noted: printed in DPPH EC50 column; cited from earlier work. (Loss of DPPH colour is used to gauge radical scavenging.)
For series [4], the system named is AChE from human erythrocytes (hAChE). The conditions noted are these: read-out: AChE IC50 ± SEM; cited from earlier work.

For the compound `COc1cc2oc(-c3cccc(OCC(=O)NCCCCCCNc4c5c(nc6cc(Cl)ccc46)CCCC5)c3)cc(=O)c2c(OC)c1OC` [Compound 2], the IC50 in series [1] (Electric eel AChE activity, read-out: AChE IC50 ± SEM (converted)) is 47.2 nM; in series [2], 968.9 ± 8.26 nM; in series [4], 32.5 ± 0.25 nM. Besides, the “SI (BChE IC50/AChE IC50)” value in series [1] (electric eel AChE vs equine serum BChE) is on record as 20.5. Moreover, the ORAC-FL antioxidant power in series [3] is on record as 0.47 ± 0.03 ^a µM of Trolox/µM of tested compound.
